The values below come from US20120129919A1, “POLYCATIONIC AMPHIPHILIC CYCLOOLIGOSACCHARIDES AND THE USE THEREOF AS MOLECULAR TRANSPORTERS” (priority 2009, published 2012).

Test [1] deals with DNA of pEGFP-N3 (DNase I digestion). Description: DNase protection assay of pDNA complexes. Particulars: for protection of pDNA against degradation by DNase: pEGFP-N3 complexes, N/P=5, DNase I 45 minutes at 37° C., FIG. 4. How it is done:
The DNA of pEGFP-N3 (10 μl at 0.1 μg/μl) was mixed with an equal volume of stock solution of βCD derivative using N/P=5, and incubated for 30 min at room temperature. 15 μl of a DNase I solution (0.1 mg/ml in 50 mM Tris-HCl, pH 8, 2000 U/mg) were added to the mixture and it was incubated for 45 minutes at 37° C. Following the digestion, 20 μl of a 10% SDS solution were added and the samples were incubated for 2 h at 85° C. Finally, one aliquot (20 μl) of each sample was subjected to agarose gel electrophoresis (0.8% w/v) in TAE buffer.

The next test has as its system CHO-k1 cells. Nature of the test: In vitro gene transfection of pEGFP-N3 complexes, GFP fluorescence. The test is classed as cell-based, Chinese hamster. Particulars: pEGFP-N3 plasmid, N/P ratios between 0.1 and 20, FIG. 5. How it is done:
Ovarian cells of wild-type Chinese hamsters (CHO-k1; no. ATCC CCL-61) were cultured in Dulbecco's modified Eagle's medium (DMEM) supplemented with 10% (v/v) of foetal bovine serum, 2 mM glutamine plus, 100 U/ml of penicillin and […] of streptomycin. Prior to the transfection, the cells were seeded in 24 well plates and incubated for 24 h, to reach an 80%-90% cell confluence. For the transfection experiments, plasmid pEGFP-N3 (1 μg) was mixed with the corresponding CD derivative at N/P ratios ranging between 0.1 and 20, at room temperature for 20 minutes, in a final volume of 20 μl. The mixture was diluted to 0.5 ml with DMEM without serum and added to each well. The untransfected cells and the naked pEGFP-N3 were used as negative controls. As a positive control, a transfection experiment was performed using 1 μl of Lipofectamine™ 2000 (Invitrogen) and 1.0 μg of DNA, following the manufacturer's instructions. The cells were incubated with the DNA-polycationic amphiphilic βCD mixtures for 18 h; subsequently, the transfection medium was eliminated and the cells were further cultured in DMEM medium plus 10% FBS for an additional 48-h period.
The transfected cells were washed three times with PBS and 600 μl of 0.5% triton X-100 in PBS. The plates were stirred for 10 min at room temperature, the lysate was recovered and the fluorescence was quantified in a Shimadzu RF-5301PC fluorimeter with an excitation wavelength of 460 nm (5 nm) and an emission wavelength of 510 nm (10 nm). The protein concentration was measured using the Bio-Rad protein assay (Hercules, Calif., USA).

Another test has as its system DNA of pEGFP-N3. Nature of the test: Gel electrophoresis shift assay (binding/complexation of pDNA). Conditions: pEGFP-N3 plasmid, N/P ratios between 0 and 10, FIG. 3. How it is done:
Plasmid pEGFP-N3, used for the preparation of the DNA complexes and the transfection assay, is a 4729-bp (base pairs) plasmid. The quantities of polycationic amphiphilic βCD derivatives used were calculated on the basis of the desired DNA concentration, 0.02 mg/ml (50 μM phosphate), the N/P ratio, the molecular weight and the number of positive charges in the selected CD derivative. The experiments were performed for N/P 5, 10, 30 and 50. The DNA was diluted in milli-Q water to a final phosphate concentration of 50 μM; subsequently, the desired quantity of CD derivative was added from a 20-mg/ml solution (1:2 of Me2SO-water). The preparation was stirred with a vortex for a few seconds and incubated for 30 minutes.
The binding capacity of the polycationic amphiphilic DNA-βCD complex was analysed by gel electrophoresis. The stock solutions of βCD derivatives were prepared in 1:2 Me2SO-water, and the DNA was dissolved in 150 mM NaCl. The DNA of pEGFP-N3 (10 μl at 0.1 μg/μl) was mixed with an equal volume of βCD derivative using N/P ratios ranging between 0 and 10, and incubated for 30 min at room temperature prior to the addition of loading buffer (2 μl). One aliquot (5 μl) of each sample was subjected to agarose gel electrophoresis (0.8% w/v) in TAE buffer (40 mM Tris-acetate, 1 mM EDTA). The electrophoresis was performed at 7 V/cm and the gels were stained with ethidium bromide following the electrophoresis. The quantification of the intensity of the bands was performed with the NIH Image software (Rasband et al. 1995. Microbeam Analysis Soc. J. 4, 137-149). A value of 100 was assigned to the intensity of the band for naked DNA.

With “Heptakis[6(2-(4-(2,2-diaminoethylaminomethyl)-1H-1,2,3-triazole-1-yl)acetamidoethylthio)-6-deoxy-2,3-di-O-hexanoyl]cyclomaltoheptaose [Compound 17]”, the “protection of pDNA against degradation by DNase” value (“protection of pDNA … by DNase” below) in test [1] was “the rigid motif was more advantageous than the flexible architecture”. For the same substance, the transfection efficiency entry in the test with CHO-k1 cells is “the rigid motif was more advantageous than the flexible architecture”. In addition, the “complexation capacity / compaction of pDNA, stability of the CD:pDNA complex” value (“complexation capacity / compaction” for short) with DNA of pEGFP-N3 was “the rigid motif was more advantageous than the flexible architecture”.
With “Heptakis[6(2-(4-aminomethyl-1H-1,2,3-triazole-1-yl)acetamidoethylthio)-6-deoxy-2,3-di-O-hexanoyl]cyclomaltoheptaose [Compound 16]”, the “protection of pDNA … by DNase” value in test [1] is reported as “moderate increases”. Also, the transfection efficiency result in the test with CHO-k1 cells is “moderate increases”. The “complexation capacity / compaction” value in the test on DNA of pEGFP-N3 is given as “moderate increases”.
Turning to “Heptakis[6-(4-(2,2-diaminoethyl)aminomethyl)-1H-1,2,3-triazole-1-yl)-6-deoxy-2,3-di-O-myristoyl]cyclomaltoheptaose [Compound 11]”, the transfection efficiency result with CHO-k1 cells was “drastically reduced the transfection capacity”. In addition, the “complexation capacity / compaction” value in the test on DNA of pEGFP-N3 is reported as “did not modify the complexation efficiency”.
Turning to “Heptakis[6-(4-(2,2-diaminoethylaminomethyl)-1H-1,2,3-triazole-1-yl)-6-deoxy-2,3-di-O-hexanoyl]cyclomaltoheptaose tetradecahydrochloride [Compound 10]”, in test [1] (10:pDNA complexes, N/P values greater than 4), the “protection of pDNA against the environment” value is listed as “complete protection”. For the same substance, the transfection efficiency entry in the test on CHO-k1 cells is “surprisingly high transfection efficiencies, analogous to those obtained using Lipofectamine™ 2000”. Moreover, the “complexation capacity / compaction” value with DNA of pEGFP-N3 is “stable 10:pDNA complexes”.
Turning to “Heptakis[6-(4-aminomethyl-1H-1,2,3-triazole-1-yl)-6-deoxy-2,3-di-O-hexanoyl]cyclomaltoheptaose heptahydrochloride [Compound 9]”, the “protection of pDNA … by DNase” value in test [1] is reported as “plasmid still remains accessible to DNase”. Further, the transfection efficiency entry in the test with CHO-k1 cells is on record as “transfection levels remained very low”. Besides, the “complexation capacity / compaction” value with DNA of pEGFP-N3 is “improved complexation capacities of pDNA as compared to non-amphiphilic analogue 18”.
